The subject of one data set is Alternaria brassicae. Briefly: In vivo preventive test on Alternaria brassicae (leaf spot on radish). Particulars: dose 500 ppm; radish plants sprayed 24 h before contamination; grading 6 days after contamination vs control plants. The procedure:
Radish plants (“Pernod Clair” variety), sown in starter cups on a 50/50 peat soil-pozzolana substrate and grown at 17° C., are treated at the cotyledon stage by spraying with the active ingredient prepared as described above. Plants, used as controls, are treated with the mixture of acetone/tween/DMSO/water not containing the active material. After 24 hours, the plants are contaminated by spraying the cotyledons with an aqueous suspension of Alternaria brassicae spores (50 000 spores per ml). The spores are collected from a 15-day-old culture. […] Grading (% of efficacy) is carried out 6 days after the contamination, in comparison with the control plants.

For the next data set, the system named is Puccinia recondita. Briefly: In vivo preventive test on Puccinia recondita (brown rust on wheat). Particulars: dose 500 ppm; wheat plants sprayed 24 h before contamination; grading 12 days after contamination. The protocol: Plants, used as controls, are treated with the mixture of acetone/tween/DMSO/water not containing the active material. After 24 hours, the plants are contaminated by spraying the leaves with an aqueous suspension of Puccinia recondita spores (100 000 spores per ml). […] Grading (% of efficacy) is carried out 12 days after the contamination, in comparison with the control plants.

For a further data set, the system named is Sphaerotheca fuliginea. Briefly: In vivo preventive test on Sphaerotheca fuliginea (powdery mildew on cucurbits). Particulars: dose 500 ppm; gherkin plants sprayed 24 h before contamination; grading 12 days after contamination. The procedure:
Gherkin plants (“Vert petit de Paris” variety), sown in starter cups on a 50/50 peat soil-pozzolana substrate and grown at 24° C., are treated at the Z11 cotyledon stage by spraying with the active ingredient prepared as described above. Plants, used as controls, are treated with the mixture of acetone/tween/DMSO/water not containing the active material. After 24 hours, the plants are contaminated by spraying the cotyledons with an aqueous suspension of Sphaerotheca fuliginea spores (100 000 spores per ml). The spores are collected from infected plants. The contaminated to gherkin plants are incubated at about 20° C. and at 70-80% relative humidity. Grading (% of efficacy) is carried out 12 days after the contamination, in comparison with the control plants.

Data set [1] in a line: Measurement of log P values by HPLC on reversed phase columns (EEC directive 79/831 Annex V.A8). It is filed as physicochemical.
The subject of another data set is Uromyces appendiculatus. Briefly: In vivo preventive test on Uromyces appendiculatus (bean rust). As to conditions: dose 500 ppm; bean plants sprayed 24 h before contamination; grading 11 days after contamination. The essentials:
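Saxa bean plants grown at 24° C were sprayed at the 2-leaf stage (9 cm) with compound in acetone/tween/DMSO/water; controls got solvent mix only. Leaves inoculated 24 h later with U. appendiculatus spores (150 000 spores/ml). Efficacy (%) graded 11 days post-inoculation versus controls.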

A further data set has as its system Septoria tritici. Briefly: In vivo preventive test on Septoria tritici (leaf spot on wheat). Particulars: dose 500 ppm; wheat plants sprayed 24 h before contamination; grading 24 days after contamination. The protocol: Wheat plants (“Scipion” variety), sown in starter cups on a 50/50 peat soil-pozzolana substrate and grown at 22° C., are treated at the 1-leaf stage (10 cm height) by spraying with the active ingredient prepared as described above. Plants, used as controls, are treated with the mixture of acetone/tween/DMSO/water not containing the active material. After 24 hours, the plants are contaminated by spraying the leaves with an aqueous suspension of cryopreserved Septoria tritici spores (500 000 spores per ml). […] Grading (% of efficacy) is carried out 24 days after the contamination, in comparison with the control plants.

In another data set the test system is Botrytis cinerea. Briefly: In vivo preventive test on Botrytis cinerea (grey mould). Particulars: dose 500 ppm; gherkin plants sprayed 24 h before contamination; grading 4 to 5 days after contamination. The procedure:
Gherkin plants (“Vert petit de Paris” variety), sown in starter cups on a 50/50 peat soil-pozzolana substrate and grown at 24° C., are treated at the Z11 cotyledon stage by spraying with the active ingredient prepared as described above. Plants, used as controls, are treated with the mixture of acetone/tween/DMSO/water not containing the active material. After 24 hours, the plants are contaminated by spraying the cotyledons with an aqueous suspension of cryopreserved Botrytis cinerea spores (50 000 spores per ml). The spores are suspended in a nutrient solution composed of 10 g/L of PDB, 50 g/L of D-Fructose, 2 g/L of NH4NO3 and 1 g/L of KH2PO4. […] Grading (% of efficacy) is carried out 4 to 5 days after the contamination, in comparison with the control plants.

The test system of the next data set is Pyrenophora teres. Description: In vivo preventive test on Pyrenophora teres (net blotch on barley). As to conditions: dose 500 ppm; barley plants sprayed 24 h before contamination; grading 14 days after contamination. The protocol: Barley plants (“Plaisant” variety), sown in starter cups on a 50/50 peat soil-pozzolana substrate and grown at 22° C., are treated at the 1-leaf stage (10 cm height) by spraying with the active ingredient prepared as described above. Plants, used as controls, are treated with the mixture of acetone/tween/DMSO/water not containing the active material. After 24 hours, the plants are contaminated by spraying the leaves with an aqueous suspension of Pyrenophora teres spores (12 000 spores per ml). The spores are collected from a 12-day-old culture. […] Grading (% of efficacy) is carried out 14 days after the contamination, in comparison with the control plants.

The structures appear in SMILES notation.

Consider `CC(C)C1Cc2c(NC(=O)c3c(C(F)F)nn(C)c3F)cccc2C1(C)C` (centres unmarked) [Example 5], for which the Eff. % in the data set on Alternaria brassicae stood at 100%; in the data set with Puccinia recondita, 100%; in the data set on Sphaerotheca fuliginea it was 100%; with Uromyces appendiculatus it was 100%; in the data set with Septoria tritici it was 93%. Also, the logP in data set [1] (method marked [a]) is 4.69[a].
In the case of `CC1CC(C)(C)c2c(C3CC3)ccc(NC(=O)c3c(C(F)F)nn(C)c3F)c21` (centres unmarked) [Example 17], the Eff. % in the data set on Puccinia recondita is 94%; with Botrytis cinerea, 98%; with Uromyces appendiculatus, 97%; in the data set with Pyrenophora teres, 97%. Besides, the logP in data set [1] (method marked [a]) is 4.35[a];; in data set [1] (method marked [b]), 4.28[b].
With `CCCON=C1CCc2c(NC(=O)c3c(C(F)F)nn(C)c3Cl)cccc21` [Example 23], the Eff. % is 70% in the data set on Sphaerotheca fuliginea, 82% in the data set on Uromyces appendiculatus and 90% with Septoria tritici. Also, the logP in data set [1] (method marked [a]) was 3.76[a].
With `CC1c2cccc(NC(=O)c3c(C(F)F)nn(C)c3F)c2CC12CCCC2` (centres unmarked) [Example 32], the Eff. % in the data set on Alternaria brassicae was found to be 93%; with Puccinia recondita, 100%; in the data set with Sphaerotheca fuliginea, 98%; in the data set with Uromyces appendiculatus, 100%; in the data set on Pyrenophora teres, 97%; with Septoria tritici it was 90%. Besides, the logP in data set [1] (method marked [a]) is 4.39[a].
For the molecule `CC1c2cccc(NC(=O)c3c(C(F)F)nn(C)c3Cl)c2CC12CCCC2` (centres unmarked) [Example 33, 5-chloro-3-(difluoromethyl)-1-methyl-N-(1′-methyl-1′,3′-dihydrospiro[cyclopentane-1,2′-inden]-4′-yl)-1H-pyrazole-4-carboxamide], the Eff. % worked out at 86% in the data set with Alternaria brassicae; 93% in the data set on Puccinia recondita; 95% in the data set on Sphaerotheca fuliginea; 100% in the data set with Uromyces appendiculatus; 90% with Septoria tritici. This molecule gave a chromatographic logP in data set [1] (pH 2.7) of 4.63.
Turning to `CC1CC(C(C)C)c2cccc(NC(=O)c3c(C(F)F)nn(C)c3F)c21` (centres unmarked) [Example 34], the Eff. % was 93% with Alternaria brassicae; 97% in the data set on Puccinia recondita; 95% in the data set with Sphaerotheca fuliginea; 100% in the data set with Uromyces appendiculatus; 97% with Pyrenophora teres; 85% with Septoria tritici. In data set [1] (method marked [a]), the logP was 4.19[a].
As to `CC1CC(C(C)C)c2cccc(NC(=O)c3c(C(F)F)nn(C)c3Cl)c21` (centres unmarked) [Example 35], the Eff. % in the data set on Alternaria brassicae was determined as 79%; in the data set with Puccinia recondita, 97%; in the data set with Uromyces appendiculatus, 100%; with Septoria tritici it was 80%. Also, in data set [1] (method marked [a]), the logP was 4.46[a].
As to `CC(C)C1Cc2cccc(NC(=O)c3c(C(F)F)nn(C)c3Cl)c2C1C` (centres unmarked) [Example 48], the Eff. % in the data set with Puccinia recondita came out at 100%; in the data set with Sphaerotheca fuliginea, 100%; in the data set with Uromyces appendiculatus it was 100%; in the data set on Septoria tritici, 80%. In data set [1] (method marked [a]), the logP is 4.49[a].
Take `CC1CC(CC(C)(C)C)c2cccc(NC(=O)c3c(C(F)F)nn(C)c3Cl)c21` (centres unmarked) [Example 69]: the Eff. % is 98% in the data set on Puccinia recondita, 100% in the data set with Sphaerotheca fuliginea, 100% with Uromyces appendiculatus and 71% with Septoria tritici. The logP in data set [1] (method marked [a]) is 5.22[a].
As for `CC1CC(CC(C)(C)C)c2cccc(NC(=O)c3c(C(F)F)nn(C)c3F)c21` (centres unmarked) [Example 70], the Eff. % with Alternaria brassicae is recorded as 89%; with Puccinia recondita, 98%; with Sphaerotheca fuliginea it was 100%; in the data set with Uromyces appendiculatus, 100%; in the data set with Septoria tritici it was 79%. Also, the logP in data set [1] (method marked [a]) was 4.92[a].
On to `Cn1nc(C(F)F)c(C(=O)Nc2cccc3c2CC(C)(C)C3)c1F` [Example 72], for which the Eff. % in the data set with Puccinia recondita stood at 98%; in the data set on Sphaerotheca fuliginea, 100%; with Uromyces appendiculatus it was 100%; in the data set with Septoria tritici it was 71%. In data set [1] (method marked [a]), the logP is 3.64[a].
With `Cn1nc(C(F)F)c(C(=O)Nc2cccc3c2CC(C)(C)C3)c1Cl` [Example 73], the Eff. % is reported as 83% with Alternaria brassicae; 100% in the data set on Puccinia recondita; 100% in the data set with Sphaerotheca fuliginea; 100% in the data set on Uromyces appendiculatus; 71% in the data set on Septoria tritici. Also, the logP in data set [1] (method marked [a]) was 3.21[a].
For the molecule `Cn1nc(C(F)F)c(C(=S)Nc2cccc3c2CCC3C(C)(C)C)c1F` (centres unmarked) [Example 75], the Eff. % came to 100% with Puccinia recondita, 100% with Sphaerotheca fuliginea, 100% with Uromyces appendiculatus and 79% with Septoria tritici. In addition, the logP in data set [1] (method marked [a]) was 4.51[a].
`CC(C)CC1CC(C)c2c(NC(=O)c3c(C(F)F)nn(C)c3F)cccc21` (centres unmarked) [Example 80]: the Eff. % worked out at 97% with Alternaria brassicae; 98% in the data set with Puccinia recondita; 98% in the data set with Sphaerotheca fuliginea; 100% with Uromyces appendiculatus; 97% with Pyrenophora teres; 86% in the data set on Septoria tritici. Moreover, in data set [1] (method marked [a]), the logP is 4.71[a].
Turning to `CCC1Cc2c(NC(=O)c3c(C(F)F)nn(C)c3F)cccc2C1(C)C` (centres unmarked) [Example 86], the Eff. % is 96% in the data set on Alternaria brassicae; 100% with Puccinia recondita; 100% in the data set on Uromyces appendiculatus; 92% in the data set with Pyrenophora teres; 93% in the data set with Septoria tritici. Besides, the logP in data set [1] (method marked [a]) is 4.34[a].
Take `CCC1Cc2c(NC(=O)c3c(C(F)F)nn(C)c3Cl)cccc2C1(C)C` (centres unmarked) [Example 90]: the Eff. % in the data set with Alternaria brassicae worked out at 90%; with Puccinia recondita, 100%; in the data set on Sphaerotheca fuliginea, 100%; in the data set with Uromyces appendiculatus, 100%; in the data set on Pyrenophora teres, 75%; in the data set on Septoria tritici it was 79%. In addition, the logP in data set [1] (method marked [a]) is 4.61[a].
Take `CCC1(CC)Cc2c(NC(=O)c3c(C(F)F)nn(C)c3Cl)cccc2C1C` (centres unmarked) [Example 93]: the Eff. % in the data set with Puccinia recondita was found to be 98%; with Sphaerotheca fuliginea, 98%; with Uromyces appendiculatus it was 100%; in the data set on Septoria tritici, 75%. The logP in data set [1] (method marked [a]) was 4.92[a].
Consider `Cn1nc(C(F)F)c(C(=O)Nc2cccc3c2CCC3C(C)(C)C)c1F` (centres unmarked) [Example 97], for which the Eff. % with Puccinia recondita was determined as 98%; with Sphaerotheca fuliginea, 89%; in the data set with Uromyces appendiculatus it was 100%; in the data set on Pyrenophora teres, 83%; in the data set with Septoria tritici it was 79%. Also, in data set [1] (method marked [a]), the logP was 4.39[a].
Consider `CCC1(CC)Cc2c(NC(=O)c3c(C(F)F)nn(C)c3F)cccc2C1C` (centres unmarked) [Example 101], for which the Eff. % turned out to be 100% in the data set on Alternaria brassicae; 98% in the data set with Puccinia recondita; 100% in the data set with Sphaerotheca fuliginea; 100% in the data set on Uromyces appendiculatus; 88% with Septoria tritici. The logP in data set [1] (method marked [a]) is 4.67[a].

Usually chromatographic logP stands for a lipophilicity value derived from retention on a column.

Values taken from patent US9375005B2, “5-halogenopyrazole indanyl carboxamides” (BAYER CROPSCIENCE AG, priority 2012, dated 2016).
